Measured values published in BindingDB's records for doi:10.7270/Q20G3HMV (Burnham Center For Chemical Genomics, 2010).

Biological target: Envelope glycoprotein gp160 (Human immunodeficiency virus 1, UniProt Q6QLK5)
Assay: HIV Env-driven cell-cell fusion inhibition, SAR follow-up, luminescence reporter (AID 435029)

Sequence of Envelope glycoprotein gp160 (Q6QLK5 whole entry, the tested form may be a part): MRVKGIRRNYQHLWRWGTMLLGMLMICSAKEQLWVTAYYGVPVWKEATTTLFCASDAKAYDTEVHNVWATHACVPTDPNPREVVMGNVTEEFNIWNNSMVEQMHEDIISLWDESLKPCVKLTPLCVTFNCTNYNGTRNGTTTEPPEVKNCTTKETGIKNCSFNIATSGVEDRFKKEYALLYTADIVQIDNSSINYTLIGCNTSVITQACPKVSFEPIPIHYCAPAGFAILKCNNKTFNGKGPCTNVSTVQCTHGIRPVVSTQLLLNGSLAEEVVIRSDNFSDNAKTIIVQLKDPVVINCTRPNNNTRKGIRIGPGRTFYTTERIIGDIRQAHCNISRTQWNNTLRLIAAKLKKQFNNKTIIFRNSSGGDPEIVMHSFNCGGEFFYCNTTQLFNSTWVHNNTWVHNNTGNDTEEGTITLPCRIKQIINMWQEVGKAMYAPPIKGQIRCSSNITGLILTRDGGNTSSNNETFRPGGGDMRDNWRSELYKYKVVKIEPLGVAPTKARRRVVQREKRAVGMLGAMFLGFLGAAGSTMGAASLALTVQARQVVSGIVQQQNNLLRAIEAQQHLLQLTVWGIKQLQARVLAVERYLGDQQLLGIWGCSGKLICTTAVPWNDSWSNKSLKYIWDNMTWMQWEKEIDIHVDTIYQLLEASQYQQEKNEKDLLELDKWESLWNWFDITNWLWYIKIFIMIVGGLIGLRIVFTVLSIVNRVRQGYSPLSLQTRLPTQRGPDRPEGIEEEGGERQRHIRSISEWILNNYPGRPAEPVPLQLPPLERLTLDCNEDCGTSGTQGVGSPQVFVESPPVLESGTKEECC

Row | Compound | IC50 [µM]
1 | CCC(C)(C)C1CCc2c(sc(NC(=O)c3ccccc3C(=O)O)c2C#N)C1 (centres undefined) [2-[[3-cyano-6-(2-methylbutan-2-yl)-4,5,6,7-tetrahydro-1-benzothiophen-2-yl]carbamoyl]benzoic acid] | 7.3
2 | COC(=O)c1sc(-c2ccc(C(C)(C)C)cc2)cc1NC(=O)c1ccccc1C(=O)O [SMR000456098] | 1.5
3 | O=c1/c(=C/c2cc([N+](=O)[O-])cc([N+](=O)[O-])c2O)sc2nc3ccccc3n12 [2-[(2-hydroxy-3,5-dinitrophenyl)methylidene]-1-thiazolo[3,2-a]benzimidazolone] | 8.6
4 | Cc1ccc(-n2cccc2/C=C2/C(=N)N3C(=NC2=O)SN=C3S(C)(=O)=O)cc1Cl [MLS000583163] | 4.6
5 | CC(C)NC(=O)c1sc(=S)n2c1[nH]c(=O)c1ccc(C(=O)NCCc3ccc(Cl)cc3)cc12 [N8-[2-(4-chlorophenyl)ethyl]-5-oxidanylidene-N3-propan-2-yl-1-sulfanylidene-4H-[1,3]thiazolo[3,4-a]quinazoline-3,8-dicarboxamide] | 11.1
6 | N#C/C(=C\C1C=CC(=O)C([N+](=O)[O-])=C1)c1nc2ccccc2s1 (centres undefined) | 4.65
7 | CCOC(=O)C1=C(C)N=c2sc(=Cc3ccc(OCC(=O)O)cc3)c(=O)n2C1c1ccc(OC(C)C)cc1 (centres undefined) [2-[4-[[6-ethoxycarbonyl-7-methyl-3-oxo-5-(4-propan-2-yloxyphenyl)-5H-[1,3]thiazolo[3,2-a]pyrimidin-2-ylidene]methyl]phenoxy]acetic acid] | 4.45
8 | CC(C)S(=O)(=O)C1=NSC2=NC(=O)/C(=C\c3ccc(-c4ccccc4)o3)C(=N)N21 [(6Z)-5-imino-6-[(5-phenyl-2-furanyl)methylidene]-3-propan-2-ylsulfonyl-[1,2,4]thiadiazolo[4,5-a]pyrimidin-7-one] | 3.2
9 | Cc1c2c(=O)n(-c3nc4ccccc4s3)[nH]c2cc(=O)n1Cc1ccccc1 [MLS000762993] | 6.58
10 | COc1cc(/C=N/NS(=O)(=O)c2ccc3ccccc3c2)ccc1OCc1ccc(C(=O)O)cc1 [MLS-0298745.0001] | 31
11 | O=C(O)c1ccccc1C(=O)N(Cc1cccc(Oc2ccc(Cl)cc2)c1)[C@H]1CCCc2ccccc21 [2-[[[3-(4-chlorophenoxy)phenyl]methyl-[(1S)-1,2,3,4-tetrahydronaphthalen-1-yl]amino]-oxomethyl]benzoic acid] | 4.1
12 | O=C1NC(=S)N(c2ccc(F)cc2)C(=O)C1=Cc1ccco1 [(5E)-1-(4-fluorophenyl)-5-(2-furanylmethylidene)-2-sulfanylidene-1,3-diazinane-4,6-dione] | 20
13 | CS(=O)(=O)C1=NSC2=NC(=O)/C(=C\c3cccn3-c3ccc(Cl)cc3)C(=N)N21 | 8.8
14 | O=C1Nc2ccc([N+](=O)[O-])cc2C1=NNc1ccccc1C(=O)O [2-[2-(5-nitro-2-oxidanylidene-indol-3-yl)hydrazinyl]benzoic acid] | > 100
15 | COc1ccccc1NS(=O)(=O)c1cccc(-n2c(O)c(C=Nc3ccccc3C(=O)O)c3ccccc3c2=O)c1 [MLS000776209] | 2.3
16 | CCS(=O)(=O)C1=NSC2=NC(=O)/C(=C\c3ccc(OS(=O)(=O)c4ccccc4)cc3)C(=N)N21 [MLS-0362442.0001] | 8.4
17 | O=C(O)CCCN1C(=O)/C(=C/c2ccc(-c3nc4ccccc4s3)o2)SC1=S [4-[(5Z)-5-[[5-(1,3-benzothiazol-2-yl)furan-2-yl]methylidene]-4-oxo-2-sulfanylidene-1,3-thiazolidin-3-yl]butanoic acid] | 1
18 | COc1ccc(C(=O)Oc2ccc(CN=Nc3ccc(Cl)c(C(=O)O)c3)cc2OC)cc1 [SMR000589907] | 13
19 | CCOc1cc(/C=C2\SC(=O)N(CC(=O)Nc3ccccc3F)C2=O)cc([N+](=O)[O-])c1O | 8.3
20 | O=C1NC(=S)N(C2CCCCC2)C(=O)C1=CNNC(=O)c1ccccc1O [N'-[(E)-(1-cyclohexyl-4,6-dioxo-2-sulfanylidene-1,3-diazinan-5-ylidene)methyl]-2-hydroxybenzohydrazide] | 11.5

Row | Compound | IC50 [µM]
21 | CC(C)(C)c1cc(-c2cs/c(=N\c3ccccc3)n2Cc2ccc(C(=O)O)cc2)cc(C(C)(C)C)c1O [4-[[4-(3,5-ditert-butyl-4-oxidanyl-phenyl)-2-phenylazanyl-1,3-thiazol-3-ium-3-yl]methyl]benzoic acid;bromide] | 3.5
22 | CS(=O)(=O)C1=NSC2=NC(=O)/C(=C\c3ccc(OS(=O)(=O)c4ccccc4)cc3)C(=N)N21 | 12.7
23 | CCC(Sc1nc2ccsc2c(=O)n1Cc1ccc(C(=O)O)cc1)C(=O)Nc1ccc(C)c(Cl)c1 (centres undefined) | 13.2
24 | Cc1ccc(S(=O)(=O)Oc2ccc(/C=C3/C(=N)N4C(=NC3=O)SN=C4S(C)(=O)=O)cc2)cc1 [4-methylbenzenesulfonic acid [4-[(Z)-(5-imino-3-methylsulfonyl-7-oxo-[1,2,4]thiadiazolo[4,5-a]pyrimidin-6-ylidene)methyl]phenyl] ester] | 8
25 | Cc1c(Cl)cccc1NS(=O)(=O)c1ccc2c(c1)C1C=CCC1C(c1ccc(C(=O)O)cc1)N2 (centres undefined) | 5.4
26 | Cc1cc(C)cc(-n2cccc2/C=C2/C(=N)N3C(=NC2=O)SN=C3S(C)(=O)=O)c1 [(6Z)-5-azanylidene-6-[[1-(3,5-dimethylphenyl)pyrrol-2-yl]methylidene]-3-methylsulfonyl-[1,2,4]thiadiazolo[4,5-a]pyrimidin-7-one] | 4.7
27 | CC(C)S(=O)(=O)C1=NSC2=NC(=O)/C(=C\c3ccc(-c4cccc(C(=O)O)c4)o3)C(=N)N21 [3-[5-[(Z)-(5-imino-7-oxo-3-propan-2-ylsulfonyl-[1,2,4]thiadiazolo[4,5-a]pyrimidin-6-ylidene)methyl]furan-2-yl]benzoic acid] | 68
28 | O=C1NC(=S)N(c2ccc(F)cc2)C(=O)C1=Cc1ccoc1 [SMR000270574] | 11.3
29 | N#C/C(=C\c1ccc(OCc2ccc(Cl)cc2)cc1)C(=O)Nc1cccc(C(=O)O)c1 [MLS-0334991.0001] | > 100
30 | CCOC(=O)c1sc(N2C(=O)C(=O)C(C(=O)c3ccc(C)o3)C2c2cccc([N+](=O)[O-])c2)nc1C (centres undefined) [ethyl 4-methyl-2-[3-(5-methylfuran-2-yl)carbonyl-2-(3-nitrophenyl)-4-oxidanyl-5-oxidanylidene-2H-pyrrol-1-yl]-1,3-thiazole-5-carboxylate] | 5.1
31 | O=[N+]([O-])c1cc([N+](=O)[O-])c2oc(-c3ccccc3)c(Br)c2c1O [3-bromanyl-5,7-dinitro-2-phenyl-1-benzofuran-4-ol] | 2.5
32 | COc1cc(CN=Nc2ccc(Cl)c(C(=O)O)c2)ccc1OC(=O)c1ccc(F)cc1 [2-chloro-5-[2-[[4-[(4-fluorophenyl)-oxomethoxy]-3-methoxyphenyl]methylidene]hydrazinyl]benzoic acid] | 30
33 | COc1cc(/C=C2\SC(=O)N(c3ccccc3Cl)C2=O)cc([N+](=O)[O-])c1O | 7.5
34 | CSc1nnc(-c2ccccc2N=Cc2c(C)[nH]n(-c3ccc4ccccc4c3)c2=O)c(=O)[nH]1 [MLS000540062] | 16.5
35 | COc1cc(CN=Nc2ccc(Cl)c(C(=O)O)c2)ccc1OC(=O)c1ccccc1F [SMR000589905] | 68
36 | Cc1ccc(-n2c(O)c(C=Nc3ccccc3-c3n[nH]c(=S)[nH]c3=O)c3ccccc3c2=O)c(C)c1 [SMR000370443] | 9.8
37 | COc1ccc(OC)c(N2C(=O)C(=Cc3ccco3)C(=O)NC2=S)c1 [MLS001197216] | 15
38 | O=C(O)c1cc(N=NCc2ccc(-c3ccccc3)cc2)ccc1Cl [MLS-0319671.0001] | 10
39 | CC1(C)CC(=O)C2=C(C1)c1c(ccc3ccccc13)NC2c1cc([N+](=O)[O-])cc([N+](=O)[O-])c1O (centres undefined) [MLS000716265] | 2.4
